The text below walks through data of patent US7375229B2, “Dihydro-dibenzo[B,E]oxepine based selective estrogen receptor modulators, compositions and methods” (Eli Lilly and Company, priority 2002, dated 2008).

pIC50, pKi: −log10 of the molar value.

One assay has as its target T1, ERbeta receptor (Homo sapiens, UniProt Q92731).
T1 construct: purchased PanVera
Nature of the assay: Competition binding assay with 3H-Estradiol, ERbeta receptor. The note with it: IC50 converted to Ki using Cheng-Prusoff equation; 3H-Estradiol competition; read-out: ER binding Ki (ERβ). On the procedure: (§1) Competition binding assay is run in a buffer containing 50 mM Hepes, pH 7.5, 1.5 mM EDTA, 150 mM NaCl, 10% glycerol, 1 mg/ml ovalbumin and 5 mM DTT, using 0.025 μCi per well ^3H-Estradiol (NEN #NET517 at 118 Ci/mmol, 1 mCi/ml), 10 ng/well ERAlpha or ERbeta receptor (PanVera). Competing compounds are added at 10 different concentrations. Non-specific binding is determined in the presence of 1 μM of 17-B Estradiol. The binding reaction (140 μl) is incubated for 4 hours at room temperature, then 70 μl of cold DCC buffer is added to each reaction (DCC buffer contains per 50 ml of assay buffer, 0.75 g of charcoal (Sigma) and 0.25 g of dextran (Pharmacia)). Plates are mixed 8 minutes on an orbital shaker at 4° C. Plates are then centrifuged at 3,000 rpm at 4° C. for 10 minutes. An aliquot of 120 μl of the mix is transferred to another 96-well, white flat bottom plate (Costar) and […] of Wallac Optiphase “Hisafe 3” scintillation fluid is added to each well. Plates are sealed and shaken vigorously on an orbital shaker. After an incubation of 2.5 hrs, read plates in a Wallac Microbeta counter. The data is used to calculate an IC50 and % Inhibition at 10 μM. The Kd for ^3H-Estradiol is determined by saturation binding to ER alpha and ER beta receptors. The IC50 values for compounds are converted to Ki using Cheng-Prusoff equation and the Kd determined by saturation binding assay.

Another assay addresses T2, ERAlpha receptor (Homo sapiens, UniProt P03372).
T2 construct: purchased PanVera
T2 sequence (P03372 1-595): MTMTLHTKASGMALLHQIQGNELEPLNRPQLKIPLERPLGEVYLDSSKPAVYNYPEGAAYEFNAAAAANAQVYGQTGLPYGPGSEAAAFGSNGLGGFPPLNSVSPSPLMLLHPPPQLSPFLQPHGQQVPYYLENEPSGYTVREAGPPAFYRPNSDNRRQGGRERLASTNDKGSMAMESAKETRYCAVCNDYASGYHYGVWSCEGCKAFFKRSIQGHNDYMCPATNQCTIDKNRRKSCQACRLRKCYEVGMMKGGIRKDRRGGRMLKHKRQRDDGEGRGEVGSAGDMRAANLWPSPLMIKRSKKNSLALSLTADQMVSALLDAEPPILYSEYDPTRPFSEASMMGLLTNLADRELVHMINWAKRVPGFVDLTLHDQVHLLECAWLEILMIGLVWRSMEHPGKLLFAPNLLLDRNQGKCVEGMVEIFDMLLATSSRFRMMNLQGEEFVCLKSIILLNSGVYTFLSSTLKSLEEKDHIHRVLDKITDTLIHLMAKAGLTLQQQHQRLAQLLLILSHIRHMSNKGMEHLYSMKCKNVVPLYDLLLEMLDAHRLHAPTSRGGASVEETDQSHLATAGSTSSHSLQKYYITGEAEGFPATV
As to the kind of experiment: Competition binding assay with 3H-Estradiol, ERAlpha receptor. The note with it: IC50 converted to Ki using Cheng-Prusoff equation; 3H-Estradiol competition; read-out: ER binding Ki (ERα). On the procedure:
as §1

Assay [1] relates to Ishikawa human endometrial tumor cells. Nature of the assay: Ishikawa cell assay (PNPP readout), agonist and antagonist modes. Format: cell-based. The note with it: for pIC50: Homo sapiens, Ishikawa, antagonist mode, with 1 nM E2; for Ishikawa Agonist % Eff: agonist mode, % efficacy versus the response to Tamoxifen. The source says: Ishikawa human endometrial tumor cells are maintained in MEM (minimum essential medium, with Earle's salts and L-Glutamine, Gibco BRL, Gaithersburg, Md.), supplemented with 10% fetal bovine serum (FBS) (V/V), (Gibco BRL). One day prior to assay, growth media is changed to assay medium, DMEM/F-12 (3:1) (Dulbecco's Modified Eagle Medium: Nutrient Mixture F-12, 3:1 Mixture, phenol red-free, Gibco BRL) supplemented with 5% dextran coated charcoal stripped fetal bovine serum (DCC-FBS) (Hyclone, Logen, Utah), L-Glutamine (2 mM), MEM sodium pyruvate (1 mM), HEPES (N-[2-hydroxyethyl]piperazine-N′-[2-ethanesulfonic acid] 2 mM) all from Gibco BRL). After an overnight incubation, ishikawa cells are rinsed with Dulbecco's Phosphate Buffered Saline (1×) (D-PBS) without Ca^+2 and Mg^+2 (Gibco BRL), and trypsinized by a 3 minute incubation with 0.25% Trypsin/EDTA, phenol red-free (Gibco BRL). Cells are resuspended in assay medium and adjusted to 250,000 cells/ml. Approximately 25,000 cells in a 100 ul media are added to flat-bottom 96 wells microculture plates (Costar 3596) and incubated at 37° C. in a 5% CO2 humidified incubator for 24 hours. The next day, serial dilutions of compounds are prepared in assay medium (at 6 times the finial concentration in the assay). The assay is run in dual mode, agonist and antagonist modes. For the agonist mode, plates receive 25 μl/well of assay medium followed by 25 μl/well of diluted compounds (at 6× the final concentrations). For the antagonist mode, plates receive 25 µl/well of 6 nM E2 (β-Estradiol, Sigma, St. Louis, Mo.) followed by 25 μl/well of diluted compounds (at 6× the final concentrations). After an additional 48-hour incubation at 37° C. in a 5% CO2 humidified incubator, media is aspirated from wells and 100 μl fresh assay medium is added to each microculture. Serial dilutions of compounds are prepared and added to the cells as described above. After an additional 72 hour incubation at 37° C. in a 5% CO2 humidified incubator, the assay is quenched by removing media and rinsing plates twice in Dulbecco's Phosphate Buffered Saline (1×) (D-PBS) (Gibco BRL). The plates are dried for 5 min and frozen at −70° C. for at least 1 hour. The plates are then removed from the freezer and allowed to thaw at room temperature. To each well, 100 μl of 1-Step™ PNPP (Pierce Chemical Company, Rockford, Ill.) is added. After a 20-minute incubation, plates are read on a spectophotometer at 405 nm. The data is fitted to a linear interpolation to derive EC50 (for agonist mode) or IC50 (for antagonist mode) values. For the agonist mode, a % efficacy for each compound is calculated versus the response to Tamoxifen. For the antagonist mode, a % efficacy for each compound is calculated versus E2 (1 nM) alone.

The test system of assay [2] is MCF-7 breast adenocarcinoma cells. Nature of the assay: MCF-7 proliferation assay (14C-thymidine), antagonist mode. Particulars: Homo sapiens, MCF7, with 10 pM E2. Format: cell-based. On the procedure:
MCF-7 breast adenocarcinoma cells (ATCC HTB 22) are maintained in MEM (minimal essential medium, phenol red-free, Gibco BRL) supplemented with 10% fetal bovine serum (FBS) (V/V), L-glutamine (2 mM), sodium pyruvate (1 mM), HEPES ((N-[2-hydroxyethyl]piperazine-N′-[2-ethanesulfonic acid] 10 mM}, non-essential amino acids (0.1 mM) and Penicillin Streptomycin (1×). Seven days prior to assay, MCF-7 cells are switched to assay media which is the same as maintenance medium except supplemented with 10% dextran-coated charcoal-stripped fetal bovine serum (DCC-FBS) assay medium in place of 10% FBS. MCF-7 cells are removed from flasks using 10× Trypsin EDTA (phenol red free, Gibco BRL) and diluted to 1× in (Ca++/Mg++ free HBSS (phenol red-free). Cells are adjusted to 80,000 cells/ml in assay medium. […] For each of the agonist plates, a basal level (media) and a maximum stimulated level (with 1 μM E2) is determined. For each of the antagonist plates, a basal level (media) and a E2 (10 pM) alone control is determined. […] The plates are incubated overnight in the same incubator and then counted on the Wallac Microbeta counter. […] For the agonist mode, an EC50 and percent of maximum E2 stimulation and concentration of maximum stimulation is calculated.

T1 sequence (Q92731 whole entry): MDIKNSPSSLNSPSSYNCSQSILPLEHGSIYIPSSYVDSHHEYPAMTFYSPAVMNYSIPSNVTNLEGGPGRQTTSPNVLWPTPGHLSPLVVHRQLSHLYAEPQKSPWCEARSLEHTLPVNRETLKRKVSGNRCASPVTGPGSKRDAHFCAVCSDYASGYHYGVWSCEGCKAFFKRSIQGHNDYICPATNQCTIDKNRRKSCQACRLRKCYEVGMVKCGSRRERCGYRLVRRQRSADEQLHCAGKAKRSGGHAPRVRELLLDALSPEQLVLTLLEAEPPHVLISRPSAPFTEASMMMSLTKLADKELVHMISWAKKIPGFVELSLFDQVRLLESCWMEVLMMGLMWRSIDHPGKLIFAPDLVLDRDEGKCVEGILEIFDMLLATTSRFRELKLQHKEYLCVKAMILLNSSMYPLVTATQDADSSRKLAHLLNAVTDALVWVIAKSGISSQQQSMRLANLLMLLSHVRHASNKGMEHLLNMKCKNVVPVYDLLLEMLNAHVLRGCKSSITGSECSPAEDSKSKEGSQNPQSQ

Consider `Oc1ccc2c3c(sc2c1)Cc1ccccc1OC3c1ccc(OCCN2CCCCC2)cc1` (stereo not shown) [Example 1, 5-[4-(2-Piperidin-1-yl-ethoxy)-phenyl]-5,11-dihydro-6-oxa-12-thia-dibenzo[a,f]azulen-2-ol], for which the pKi at ERbeta receptor and at ERAlpha receptor was 9.00 throughout. For the same molecule, the pIC50 was 7.72 in assay [1] and 8.10 in assay [2]. In addition, in assay [1], the “Ishikawa Agonist % Eff” value is on record as 4%.

For the molecule `Oc1ccc2c3c(ccc2c1)Cc1ccccc1OC3c1ccc(OCCN2CCCCC2)cc1` (stereo not shown) [Example 2, 13-[4-(2-Piperidin-1-yl-ethoxy)-phenyl]-7,13-dihydro-12-oxa-benzo[4,5]cyclohepta[1,2-a]naphthalen-3-ol], the figures for the pKi at ERbeta receptor and at ERAlpha receptor were 8.52 and 8.70, respectively. The pIC50 in assay [1] is 6.34; in assay [2] it was 8.00. Moreover, in assay [1], the “Ishikawa Agonist % Eff” value came to 24%.

Broadly, the pKi is −log10 of the Ki, conventionally taken in molar units. Broadly, the pIC50 is the negative decadic logarithm of the IC50, by convention in mol/L. A higher pIC50 goes with a low IC50.
